Test results taken from the supplement of paper PMC10307832.

Compound: CC(O)(CS(=O)(=O)c1ccc(F)cc1)C(=O)Nc1ccc(C#N)c(C(F)(F)F)c1 [Bicalutamide]
Assay: relative viability (nuclei count vs DMSO), 5 days (fraction); higher = more cells survive
Conditions: 0.08 µM
Method in brief: (§1)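 Lung cancer cell lines were seeded into 1536-well plates, kept overnight at 37 °C and pinned with five library-drug doses (not always all listed) spaced by √10. After 5 days, nuclei were Hoechst-stained, imaged at 4× and counted with MetaXpress. Viability is treated-well nuclei over vehicle-well nuclei, taken as a median across plates. Plates needed control CV below 25% and at least one doubling.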

Compared with LC-2-ad, NCI-H1563 is lower in relative viability: 1.09 for the first, 0.965 for the second.

First: NCI-H1944
Second: NCI-H1975
The relative viability of the first is higher: 0.993 for the first, 0.935 for the second.

Compared with SK-LU-1, ABC-1 is lower in relative viability: 1.11 for the first, 0.998 for the second.

First: NCI-H358
Second: NCI-H661
The relative viability of the first is higher: 0.988 for the first, 0.987 for the second.

Work on RERF-LC-KJ yielded a relative viability of 1.01.

Same assay, conditions: 0.253 µM

First: LC-2-ad
Second: NCI-H1563
The relative viability of the first is lower: 0.935 for the first, 0.978 for the second.

Going from NCI-H1944 to NCI-H1975, the relative viability rises from 0.873 to 0.942.

First: SK-LU-1
Second: ABC-1
The relative viability of the first is higher: 1.02 for the first, 0.857 for the second.

Compared with NCI-H358, NCI-H661 is higher in relative viability: 0.865 for the first, 0.998 for the second.

RERF-LC-KJ gave a relative viability of 0.985.

Same assay, conditions: 0.8 µM

Compared with LC-2-ad, NCI-H1563 is lower in relative viability: 1.08 for the first, 1.01 for the second.

First: NCI-H1944
Second: NCI-H1975
The relative viability of the first is higher: 1.06 for the first, 0.998 for the second.

First: SK-LU-1
Second: ABC-1
The relative viability of the first is higher: 1.23 for the first, 0.951 for the second.

Going from NCI-H358 to NCI-H661, the relative viability falls from 1.13 to 1.04.

RERF-LC-KJ showed a relative viability of 1.15.

Same assay, conditions: 2.53 µM

Compared with LC-2-ad, NCI-H1563 is lower in relative viability: 0.986 for the first, 0.852 for the second.

Going from NCI-H1944 to NCI-H1975, the relative viability falls from 0.978 to 0.775.

Going from SK-LU-1 to ABC-1, the relative viability falls from 1.02 to 0.943.

First: NCI-H358
Second: NCI-H661
The relative viability of the first is higher: 1.06 for the first, 1.01 for the second.

In the case of RERF-LC-KJ, the relative viability is reported as 0.982.

Compound: C(C(=O)C(=O)O)Br [Bromopyruvate]
Assay: as above
Conditions: 1 µM
Method in brief: as §1

First: LC-2-ad
Second: NCI-H1563
The relative viability of the first is higher: 1.01 for the first, 0.952 for the second.

NCI-H1944 and NCI-H1975 are the same in relative viability: 1.02 for the first, 1.02 for the second.

Going from SK-LU-1 to ABC-1, the relative viability rises from 1.07 to 1.14.

Compared with NCI-H358, NCI-H661 is lower in relative viability: 1.03 for the first, 1.02 for the second.

Work on RERF-LC-KJ yielded a relative viability of 1.04.

Same assay, conditions: 3.162 µM

First: LC-2-ad
Second: NCI-H1563
The relative viability of the first is higher: 0.985 for the first, 0.97 for the second.

First: NCI-H1944
Second: NCI-H1975
The relative viability of the first is higher: 0.995 for the first, 0.962 for the second.

First: SK-LU-1
Second: ABC-1
The relative viability of the first is lower: 0.93 for the first, 0.935 for the second.

Going from NCI-H358 to NCI-H661, the relative viability falls from 1.02 to 0.992.

RERF-LC-KJ was tested, and the relative viability was 1.02.

Same assay, conditions: 10 µM

First: LC-2-ad
Second: NCI-H1563
The relative viability of the first is higher: 1.03 for the first, 0.973 for the second.

First: NCI-H1944
Second: NCI-H1975
The relative viability of the first is lower: 0.967 for the first, 1 for the second.

First: SK-LU-1
Second: ABC-1
The relative viability of the first is higher: 1.2 for the first, 0.807 for the second.

Going from NCI-H358 to NCI-H661, the relative viability rises from 0.939 to 1.02.

Work on RERF-LC-KJ yielded a relative viability of 1.13.

Same assay, conditions: 31.62 µM

Compared with LC-2-ad, NCI-H1563 is higher in relative viability: 0.924 for the first, 0.926 for the second.

Going from NCI-H1944 to NCI-H1975, the relative viability rises from 0.904 to 0.939.

Compared with SK-LU-1, ABC-1 is higher in relative viability: 0.935 for the first, 0.995 for the second.

Going from NCI-H358 to NCI-H661, the relative viability rises from 0.909 to 1.01.

Cell Line RERF-LC-KJ has a relative viability of 1.02.

Same assay, conditions: 100 µM

Going from LC-2-ad to NCI-H1563, the relative viability rises from 0.964 to 0.987.

Going from NCI-H1944 to NCI-H1975, the relative viability falls from 1 to 0.906.

First: SK-LU-1
Second: ABC-1
The relative viability of the first is lower: 0.943 for the first, 0.945 for the second.

Going from NCI-H358 to NCI-H661, the relative viability rises from 0.929 to 0.972.

RERF-LC-KJ was tested, and the relative viability was 0.98.

Compound: CC(O)(CS(=O)(=O)c1ccc(F)cc1)C(=O)Nc1ccc(C#N)c(C(F)(F)F)c1 [Bicalutamide] + CS(=O)(=O)CCNCc1ccc(-c2ccc3ncnc(Nc4ccc(OCc5cccc(F)c5)c(Cl)c4)c3c2)o1 [Lapatinib] (partner 2 µM)
Assay: relative viability (nuclei count vs DMSO), 5 days (fraction); higher = more cells survive
Conditions: first compound 0.08 µM
Method in brief: (§2)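 Cells from lung cancer lines were seeded into 1536-well plates and, one day later, dosed by pin tool. Treatments were either a single drug or a fixed dose of an anchor drug with five library-drug doses (not always all listed) in √10 steps. After 5 days, nuclei were stained in a one-step fixation (final 0.05% Triton X-100, 1% formaldehyde, 1 ug/ml Hoechst) and counted on 4× images, and relative viability is the treated-to-vehicle nuclei ratio, as the median of duplicate plates.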

Going from LC-2-ad to NCI-H1563, the relative viability rises from 0.851 to 1.19.

Going from NCI-H1944 to NCI-H1975, the relative viability falls from 0.857 to 0.851.

First: SK-LU-1
Second: ABC-1
The relative viability of the first is lower: 0.95 for the first, 1.45 for the second.

Going from NCI-H358 to NCI-H661, the relative viability rises from 0.471 to 0.482.

RERF-LC-KJ gave a relative viability of 0.904.

Same assay, conditions: first compound 0.253 µM

First: LC-2-ad
Second: NCI-H1563
The relative viability of the first is higher: 0.873 for the first, 0.853 for the second.

Compared with NCI-H1944, NCI-H1975 is higher in relative viability: 0.607 for the first, 0.854 for the second.

Compared with SK-LU-1, ABC-1 is higher in relative viability: 0.828 for the first, 1.06 for the second.

First: NCI-H358
Second: NCI-H661
The relative viability of the first is lower: 0.475 for the first, 0.493 for the second.

RERF-LC-KJ gave a relative viability of 0.862.

Same assay, conditions: first compound 0.8 µM

First: LC-2-ad
Second: NCI-H1563
The relative viability of the first is higher: 1.08 for the first, 0.984 for the second.

Going from NCI-H1944 to NCI-H1975, the relative viability rises from 0.899 to 1.12.

Compared with SK-LU-1, ABC-1 is higher in relative viability: 0.997 for the first, 1.26 for the second.

Going from NCI-H358 to NCI-H661, the relative viability falls from 0.524 to 0.447.

RERF-LC-KJ gave a relative viability of 1.07.

Same assay, conditions: first compound 2.53 µM

Going from LC-2-ad to NCI-H1563, the relative viability falls from 0.957 to 0.776.

First: NCI-H1944
Second: NCI-H1975
The relative viability of the first is higher: 0.904 for the first, 0.785 for the second.

First: SK-LU-1
Second: ABC-1
The relative viability of the first is lower: 0.854 for the first, 1.28 for the second.

First: NCI-H358
Second: NCI-H661
The relative viability of the first is higher: 0.51 for the first, 0.493 for the second.

With RERF-LC-KJ the relative viability was 0.705.

Compound: C(C(=O)C(=O)O)Br [Bromopyruvate] + CS(=O)(=O)N1CCN(Cc2cc3nc(-c4cccc5[nH]ncc45)nc(N4CCOCC4)c3s2)CC1 [Pictilisib] (partner 1 µM)
Assay: as above
Conditions: first compound 1 µM
Method in brief: as §2

Going from LC-2-ad to NCI-H1563, the relative viability rises from 0.477 to 0.657.

First: NCI-H1944
Second: NCI-H1975
The relative viability of the first is higher: 0.353 for the first, 0.301 for the second.

Going from SK-LU-1 to ABC-1, the relative viability rises from 0.545 to 0.573.

First: NCI-H358
Second: NCI-H661
The relative viability of the first is lower: 0.342 for the first, 0.445 for the second.

RERF-LC-KJ was tested, and the relative viability was 0.537.

Same assay, conditions: first compound 3.162 µM

First: LC-2-ad
Second: NCI-H1563
The relative viability of the first is lower: 0.494 for the first, 0.657 for the second.

First: NCI-H1944
Second: NCI-H1975
The relative viability of the first is higher: 0.354 for the first, 0.318 for the second.

Compared with SK-LU-1, ABC-1 is higher in relative viability: 0.65 for the first, 0.881 for the second.

First: NCI-H358
Second: NCI-H661
The relative viability of the first is higher: 0.397 for the first, 0.349 for the second.

RERF-LC-KJ gave a relative viability of 0.563.

Same assay, conditions: first compound 10 µM

Going from LC-2-ad to NCI-H1563, the relative viability rises from 0.513 to 0.535.

Compared with NCI-H1944, NCI-H1975 is lower in relative viability: 0.352 for the first, 0.323 for the second.

First: SK-LU-1
Second: NCI-H358
The relative viability of the first is higher: 0.616 for the first, 0.343 for the second.

Compared with NCI-H661, RERF-LC-KJ is higher in relative viability: 0.458 for the first, 0.644 for the second.

Same assay, conditions: first compound 31.62 µM

Going from LC-2-ad to NCI-H1563, the relative viability rises from 0.572 to 0.626.

Going from NCI-H1944 to NCI-H1975, the relative viability rises from 0.315 to 0.326.

First: SK-LU-1
Second: ABC-1
The relative viability of the first is lower: 0.551 for the first, 0.849 for the second.

Compared with NCI-H358, NCI-H661 is higher in relative viability: 0.326 for the first, 0.337 for the second.

RERF-LC-KJ showed a relative viability of 0.617.

Same assay, conditions: first compound 100 µM

Compared with LC-2-ad, NCI-H1563 is higher in relative viability: 0.548 for the first, 0.697 for the second.

First: NCI-H1944
Second: NCI-H1975
The relative viability of the first is higher: 0.365 for the first, 0.3 for the second.

Compared with SK-LU-1, ABC-1 is higher in relative viability: 0.53 for the first, 0.686 for the second.

Compared with NCI-H358, NCI-H661 is higher in relative viability: 0.328 for the first, 0.354 for the second.

Cell Line RERF-LC-KJ has a relative viability of 0.495.
